In patent US9199984B2, “Inhibition of enzymes” (CHIESI FARMACEUTICI S.p.A., priority 2012, dated 2015):
Where a name gives a salt, the structure may show the parent alone.

target: T1, human neutrophil elastase (HNE) (Homo sapiens, UniProt P08246); test: HNE enzyme activity assay; assay type: biochemical; settings: human leukocyte elastase, substrate MeOSuc-Ala-Ala-Pro-Val-AMC 100 μM, 25° C. for 30 minutes, fluorescence; read-out: HNE inhibition
T1 construct: purchased Sigma E8140
T1 sequence (P08246 30-247 limits assumed): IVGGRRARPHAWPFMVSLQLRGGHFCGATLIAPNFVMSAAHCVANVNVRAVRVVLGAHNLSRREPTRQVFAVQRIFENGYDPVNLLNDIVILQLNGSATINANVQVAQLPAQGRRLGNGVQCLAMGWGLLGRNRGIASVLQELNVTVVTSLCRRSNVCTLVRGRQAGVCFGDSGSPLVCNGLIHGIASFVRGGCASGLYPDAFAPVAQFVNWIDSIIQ
Procedure: Compounds of the present invention were tested for potency in a human neutrophil elastase (HNE) enzyme activity assay.
Assays were performed in 96-well plates in a total assay volume of 100 μl. The final concentration of elastase enzyme (human leukocyte elastase, Sigma E8140) was 0.0036 units/well […]. The peptide substrate (MeOSuc-Ala-Ala-Pro-Val-AMC, Calbiochem #324740) was used at a final concentration of 100 μM. The final concentration of DMSO was 1% in the assay buffer (0.05M Tris.HCl, 0.1M NaCl, 0.1M CaCl2, 0.0005% brij-35, pH 7.5). The enzymatic reaction was started by addition of the enzyme and incubated at 25° C. for 30 minutes. After incubation, the reaction was stopped by addition of soybean trypsin inhibitor (Sigma T9003) at a final concentration of 50 μg/well. Fluorescence was measured using a Molecular Devices fluorescence plate reader using 380 nm excitation and 460 nm emission wavelengths.
A dose response to each compound was performed and the effect of compound in each experiment was expressed as a percentage inhibition of the control enzyme fluorescence. Dose response curves were plotted and compound potency (IC50) was determined. Compounds were tested in at least two separate experiments.

**Q.** `Cc1c(-c2ccnn2-c2ccc(C#N)cc2)cn2c(=O)n(CCCS(C)(=O)=O)nc2c1-c1cccc(C(F)(F)F)c1` [Example 13, 4-{5-[2-(3-Methanesulfonyl-propyl)-7-methyl-3-oxo-8-(3-trifluoromethyl-phenyl)-2,3-dihydro-[1,2,4]triazolo[4,3-a]pyridin-6-yl]-pyrazol-1-yl}-benzonitrile] was tested. Which IC50 did it give?
**A.** 100 to 500 nM

**Q.** For `Cc1c(-c2ccnn2-c2ccc(C#N)cc2)cn2nc(NC(=O)NC3CCNCC3)nc2c1-c1cccc(C(F)(F)F)c1` [Example 50, 1-[6-[2-(4-Cyano-phenyl)-2H-pyrazol-3-yl]-7-methyl-8-(3-trifluoromethyl-phenyl)-[1,2,4]triazolo[1,5-a]pyridin-2-yl]-3-piperidin-4-yl-urea], which IC50 is on record?
**A.** < 20 nM

**Q.** Which IC50 does the source give for `Cc1c(-c2ccnn2-c2ccc(C#N)cc2)cn2nc(NC(=O)OCCC[N+](C)(C)C)nc2c1-c1cccc(C(F)(F)F)c1` [Example 37, {3-[6-[2-(4-Cyano-phenyl)-2H-pyrazol-3-yl]-7-methyl-8-(3-trifluoromethyl-phenyl)-[1,2,4]triazolo[1,5-a]pyridin-2-ylcarbamoyloxy]-propyl}-trimethyl-ammonium formate] here?
**A.** < 20 nM

**Q.** With `Cc1c(-c2ccnn2-c2ccc(C#N)cc2)cn2nc(NC(=O)CCC[N+](C)(C)C)nc2c1-c1cccc(C(F)(F)F)c1` [Example 17, {3-[6-[2-(4-Cyano-phenyl)-2H-pyrazol-3-yl]-7-methyl-8-(3-trifluoromethyl-phenyl)-[1,2,4]triazolo[1,5-a]pyridin-2-ylcarbamoyl]-propyl}-trimethyl-ammonium bromide] as the compound, how does the IC50 read?
**A.** < 20 nM

**Q.** With `Cc1c(-c2ccnn2-c2ccc(C#N)cc2)cn2nc(NCCCN(C)C)nc2c1-c1cccc(C(F)(F)F)c1` [Example 28, 4-{5-[2-(3-Dimethylamino-propylamino)-7-methyl-8-(3-trifluoromethyl-phenyl)-[1,2,4]triazolo[1,5-a]pyridin-6-yl]-pyrazol-1-yl}-benzonitrile] as the compound, how does the IC50 read?
**A.** < 20 nM

**Q.** `Cc1c(-c2ccnn2-c2ccc(C#N)cc2)cn2nc(Nc3ccc(S(C)(=O)=O)cc3)nc2c1-c1cccc(C(F)(F)F)c1` [Example 7, 4-{5-[2-(4-Methanesulfonyl-phenylamino)-7-methyl-8-(3-trifluoromethyl-phenyl)-[1,2,4]triazolo[1,5-a]pyridin-6-yl]-pyrazol-1-yl}-benzonitrile] was tested. Which IC50 did it give?
**A.** < 20 nM

**Q.** Which IC50 does the source give for `Cc1c(-c2ccnn2-c2ccc(C#N)cc2)cn2nc(NC(=O)CCCN(C)C)nc2c1-c1cccc(C(F)(F)F)c1` [Example 16, N-[6-[2-(4-Cyano-phenyl)-2H-pyrazol-3-yl]-7-methyl-8-(3-trifluoromethyl-phenyl)-[1,2,4]triazolo[1,5-a]pyridin-2-yl]-4-dimethylamino-butyramide] here?
**A.** < 20 nM

**Q.** For `Cc1c(-c2ccnn2-c2ccc(C#N)cc2)cn2c(=O)n(CC(=O)N(C)C)nc2c1-c1cccc(C(F)(F)F)c1` [Example 11, 2-[6-[2-(4-Cyano-phenyl)-2H-pyrazol-3-yl]-7-methyl-3-oxo-8-(3-trifluoromethyl-phenyl)-[1,2,4]triazolo[4,3-a]pyridin-2-yl]-N,N-dimethyl-acetamide], which IC50 is on record?
**A.** > 500 nM

**Q.** How did the IC50 turn out when `Cc1c(-c2ccnn2-c2ccc(C#N)cc2)cn2ncnc2c1-c1cccc(C(F)(F)F)c1` [Example 3, 4-{5-[7-Methyl-8-(3-trifluoromethyl-phenyl)-[1,2,4]triazolo[1,5-a]pyridin-6-yl]-pyrazol-1-yl}-benzonitrile] was run?
**A.** < 20 nM

**Q.** With `Cc1c(-c2ccnn2-c2ccc(C#N)cc2)cn2nc(NC(=O)CN3CCN(C)CC3)nc2c1-c1cccc(C(F)(F)F)c1` [Example 18, N-[6-[2-(4-Cyano-phenyl)-2H-pyrazol-3-yl]-7-methyl-8-(3-trifluoromethyl-phenyl)-[1,2,4]triazolo[1,5-a]pyridin-2-yl]-2-(4-methyl-piperazin-1-yl)-acetamide] as the compound, how does the IC50 read?
**A.** < 20 nM

**Q.** For `CCNC(=O)Nc1nc2c(-c3cccc(C(F)(F)F)c3)c(C)c(-c3ccnn3-c3ccc(C#N)cc3)cn2n1` [Example 52, 1-[6-[2-(4-Cyano-phenyl)-2H-pyrazol-3-yl]-7-methyl-8-(3-trifluoromethyl-phenyl)-[1,2,4]triazolo[1,5-a]pyridin-2-yl]-3-ethyl-urea], which IC50 is on record?
**A.** < 20 nM

**Q.** With `Cc1c(-c2ccnn2-c2ccc(C#N)cc2)cn2cc(NC(=O)C(F)(F)F)nc2c1-c1cccc(C(F)(F)F)c1` [Example 2] as the compound, how does the IC50 read?
**A.** 100 to 500 nM

**Q.** With `CC(=O)Nc1nc2c(-c3cccc(C(F)(F)F)c3)c(C)c(-c3ncnn3-c3ccc(C#N)cc3)cn2n1` [Example 39, N-[6-[2-(4-Cyano-phenyl)-2H-[1,2,4]triazol-3-yl]-7-methyl-8-(3-trifluoromethyl-phenyl)-[1,2,4]triazolo[1,5-a]pyridin-2-yl]-acetamide] as the compound, how does the IC50 read?
**A.** < 20 nM

**Q.** Which IC50 does the source give for `Cc1c(-c2ccnn2-c2ccc(C#N)cc2)cn2nc(NCC(=O)N(C)C)nc2c1-c1cccc(C(F)(F)F)c1` [Example 24, 2-[6-[2-(4-Cyano-phenyl)-2H-pyrazol-3-yl]-7-methyl-8-(3-trifluoromethyl-phenyl)-[1,2,4]triazolo[1,5-a]pyridin-2-ylamino]-N,N-dimethyl-acetamide] here?
**A.** < 20 nM

**Q.** `Cc1c(-c2ccnn2-c2ccc(C#N)cc2)cn2nc(NCC(C)O)nc2c1-c1cccc(C(F)(F)F)c1` (stereo not drawn) [Example 49, 4-{5-[2-(2-Hydroxy-propylamino)-7-methyl-8-(3-trifluoromethyl-phenyl)-[1,2,4]triazolo[1,5-a]pyridin-6-yl]-pyrazol-1-yl}-benzonitrile] was tested. Which IC50 did it give?
**A.** < 20 nM

**Q.** `Cc1c(-c2ccnn2-c2ccc(C#N)cc2)cn2nc(N)nc2c1-c1cccc(C(F)(F)F)c1` [Example 1, 4-{5-[2-Amino-7-methyl-8-(3-trifluoromethyl-phenyl)-[1,2,4]triazolo[1,5-a]pyridin-6-yl]-pyrazol-1-yl}-benzonitrile] was tested. Which IC50 did it give?
**A.** 20 to 100 nM

**Q.** With `Cc1cn2cc(-c3ccnn3-c3ccc(C#N)cc3)c(C)c(-c3cccc(C(F)(F)F)c3)c2n1` [Example 5, 4-{5-[2,7-Dimethyl-8-(3-trifluoromethyl-phenyl)-imidazo[1,2-a]pyridin-6-yl]-pyrazol-1-yl}-benzonitrile] as the compound, how does the IC50 read?
**A.** > 500 nM

**Q.** Which IC50 does the source give for `Cc1c(-c2ccnn2-c2ccc(C#N)cc2)cn2nc(NCCCC[N+](C)(C)C)nc2c1-c1cccc(C(F)(F)F)c1` [Example 34, {4-[6-[2-(4-Cyano-phenyl)-2H-pyrazol-3-yl]-7-methyl-8-(3-trifluoromethyl-phenyl)-[1,2,4]triazolo[1,5-a]pyridin-2-ylamino]-butyl}-trimethyl-ammonium formate] here?
**A.** < 20 nM

**Q.** How did the IC50 turn out when `Cc1c(-c2ccnn2-c2ccc(C#N)cc2)cn2nc(NCCO)nc2c1-c1cccc(C(F)(F)F)c1` [Example 48, 4-{5-[2-(2-Hydroxy-ethylamino)-7-methyl-8-(3-trifluoromethyl-phenyl)-[1,2,4]triazolo[1,5-a]pyridin-6-yl]-pyrazol-1-yl}-benzonitrile] was run?
**A.** < 20 nM

**Q.** For `Cc1c(-c2ccnn2-c2ccc(C#N)cc2)cn2nc(NC(=O)c3ccc(S(C)(=O)=O)cc3)nc2c1-c1cccc(C(F)(F)F)c1` [Example 22, N-[6-[2-(4-Cyano-phenyl)-2H-pyrazol-3-yl]-7-methyl-8-(3-trifluoromethyl-phenyl)-[1,2,4]triazolo[1,5-a]pyridin-2-yl]-4-methanesulfonyl-benzamide], which IC50 is on record?
**A.** < 20 nM

**Q.** With `Cc1c(-c2ccnn2-c2ccc(C#N)cc2)cn2nc(NC(=O)NC3CCN(S(C)(=O)=O)CC3)nc2c1-c1cccc(C(F)(F)F)c1` [Example 58, 1-[6-[2-(4-Cyano-phenyl)-2H-pyrazol-3-yl]-7-methyl-8-(3-trifluoromethyl-phenyl)-[1,2,4]triazolo[1,5-a]pyridin-2-yl]-3-(1-methanesulfonyl-piperidin-4-yl)-urea] as the compound, how does the IC50 read?
**A.** < 20 nM
